Laboratory results taken from paper PMC10690365, “Improved catalytic performance and molecular insight for lipoxygenase from Enterovibrio norvegicus via directed evolution” (Frontiers in Bioengineering and Biotechnology, 2023).
Where a chain is given by its changes, count along the chain named.

Key:
[1] = molecular target: T1, EnLOX (wild-type, WT); lipoxygenase from Enterovibrio norvegicus (Enterovibrio norvegicus, UniProt A0A1I5T4S6); test: absorbance at […] nm (hydroperoxide formation), Michaelis-Menten fit; assay type: biochemical; settings: 20 mM Tris-HCl pH 8.0, 50 °C; substrate range printed as 10 to 300 mM (unit doubtful against the Km)
T1 construct: primer-encoded N-terminus MHRKKT
T1 sequence (A0A1I5T4S6 1-726): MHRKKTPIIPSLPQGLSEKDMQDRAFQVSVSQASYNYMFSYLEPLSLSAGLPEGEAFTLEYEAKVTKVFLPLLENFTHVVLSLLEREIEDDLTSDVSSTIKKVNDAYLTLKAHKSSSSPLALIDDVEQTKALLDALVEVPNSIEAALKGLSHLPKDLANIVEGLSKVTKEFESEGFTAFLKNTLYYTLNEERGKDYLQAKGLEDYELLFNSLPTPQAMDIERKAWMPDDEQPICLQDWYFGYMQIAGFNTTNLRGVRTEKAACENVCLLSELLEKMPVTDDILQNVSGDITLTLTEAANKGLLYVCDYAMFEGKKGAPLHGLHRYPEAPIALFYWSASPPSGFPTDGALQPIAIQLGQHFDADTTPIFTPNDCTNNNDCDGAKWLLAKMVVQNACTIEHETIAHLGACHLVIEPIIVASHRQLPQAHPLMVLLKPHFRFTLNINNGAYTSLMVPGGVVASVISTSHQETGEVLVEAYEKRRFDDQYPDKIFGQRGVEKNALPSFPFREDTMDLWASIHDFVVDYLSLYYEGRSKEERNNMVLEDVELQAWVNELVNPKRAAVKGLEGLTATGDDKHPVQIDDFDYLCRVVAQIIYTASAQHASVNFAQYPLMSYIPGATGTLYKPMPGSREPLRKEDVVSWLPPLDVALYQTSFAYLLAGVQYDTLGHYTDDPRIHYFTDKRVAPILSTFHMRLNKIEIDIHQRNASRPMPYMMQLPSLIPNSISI

[2] = molecular target: T2, EnLOX (wild-type, WT); lipoxygenase from Enterovibrio norvegicus (Enterovibrio norvegicus, UniProt A0A1I5T4S6, D95E/T99A/A121H/S142N/N444W/S613G, form not given); test: as above; assay type: biochemical; settings: 20 mM Tris-HCl pH 8.0, 50 °C; substrate range printed as 10 to 300 mM (unit doubtful against the Km); mutant EAHNWG (F-12E); printed nucleotide changes do not fully match the amino acid positions
T2 construct: primer-encoded N-terminus MHRKKT
T2 sequence (A0A1I5T4S6 1-726 D95E/T99A/A121H/S142N/N444W/S613G): T1 sequence (A0A1I5T4S6 1-726) with D95E, T99A, A121H, S142N, N444W, S613G

Q: Which results are given for `CCCCC/C=C\C/C=C\CCCCCCCC(=O)O` [linoleic acid]?
A: Km [1]: 3.49 ± 0.21 µM; Km [2]: 2.36 ± 0.14 µM
